Source: US5936065A, “CS-1 peptidomimetics, compositions and methods of using the same” (Cytel Corporation, priority 1995, dated 1999)
Square brackets hold non-standard residues; d marks the D form. Peptide text beside a SMILES is read from it. * marks the point of attachment. NHOctadecyl = CCCCCCCCCCCCCCCCCCN*; Cya = N[C@@H](CS(=O)(=O)O)C(=O)O; Cha = N[C@@H](CC1CCCCC1)C(=O)O; Phg = N[C@H](C(=O)O)c1ccccc1; X8 = CCCCCCCCCCCCCCCCCCO*; Piperidide = C1CCN(*)CC1; X7 = O=C(CO*)OCc1ccccc1; NHDecyl = CCCCCCCCCCN*; PhAc = O=C(Cc1ccccc1)*; ODecyl = CCCCCCCCCCO*; X1 = CCCCCCCCCCCCCCO*; X4 = CCN(CC)C(=O)CO*; Bz = O=C(c1ccccc1)*; OBn = c1ccc(CO*)cc1; X5 = CCCCCCCCCCCCO*; Ahx = NCCCCCC(=O)O; X6 = O=C(O)CO*

Each molecule was assayed against T1, VLA-4 receptor (Homo sapiens, UniProt P05556+P13612) (assay: In vitro binding assay: inhibition of binding of 51Cr-labeled Jurkat cells to solid phase-bound CS-1 compound (SEQ ID NO:1)). Details: not given.
T1 construct: inflammatory cells that contain the VLA-4 receptor [Jurkat cells; host or cells: Jurkat cells (human T lymphoblastic line)
T1 sequence (P13612 34-1032): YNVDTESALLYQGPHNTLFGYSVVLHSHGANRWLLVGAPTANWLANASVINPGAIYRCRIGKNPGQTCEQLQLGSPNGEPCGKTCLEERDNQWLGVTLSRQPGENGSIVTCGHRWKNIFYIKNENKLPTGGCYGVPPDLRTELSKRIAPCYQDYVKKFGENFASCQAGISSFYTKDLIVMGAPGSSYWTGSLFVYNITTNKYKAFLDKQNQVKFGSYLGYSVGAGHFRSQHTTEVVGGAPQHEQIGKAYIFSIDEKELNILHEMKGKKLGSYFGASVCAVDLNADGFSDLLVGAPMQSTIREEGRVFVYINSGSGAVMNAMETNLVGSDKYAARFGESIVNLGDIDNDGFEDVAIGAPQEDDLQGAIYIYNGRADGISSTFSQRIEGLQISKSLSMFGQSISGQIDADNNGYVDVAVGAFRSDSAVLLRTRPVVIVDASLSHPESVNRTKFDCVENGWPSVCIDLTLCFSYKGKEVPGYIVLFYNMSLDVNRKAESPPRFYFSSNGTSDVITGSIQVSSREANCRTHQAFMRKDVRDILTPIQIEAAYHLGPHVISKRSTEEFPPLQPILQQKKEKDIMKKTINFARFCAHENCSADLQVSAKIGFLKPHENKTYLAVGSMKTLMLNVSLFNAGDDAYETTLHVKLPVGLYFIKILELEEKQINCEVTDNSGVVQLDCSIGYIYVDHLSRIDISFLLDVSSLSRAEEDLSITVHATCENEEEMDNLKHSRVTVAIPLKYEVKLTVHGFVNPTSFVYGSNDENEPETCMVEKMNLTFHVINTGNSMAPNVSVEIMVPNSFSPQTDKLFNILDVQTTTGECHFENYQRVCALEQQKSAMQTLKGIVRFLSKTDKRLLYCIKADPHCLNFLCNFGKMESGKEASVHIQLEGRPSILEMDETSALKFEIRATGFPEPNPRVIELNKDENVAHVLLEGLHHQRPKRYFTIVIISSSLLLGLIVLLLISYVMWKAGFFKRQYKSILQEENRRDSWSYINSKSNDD
T1 sequence (P05556 21-798): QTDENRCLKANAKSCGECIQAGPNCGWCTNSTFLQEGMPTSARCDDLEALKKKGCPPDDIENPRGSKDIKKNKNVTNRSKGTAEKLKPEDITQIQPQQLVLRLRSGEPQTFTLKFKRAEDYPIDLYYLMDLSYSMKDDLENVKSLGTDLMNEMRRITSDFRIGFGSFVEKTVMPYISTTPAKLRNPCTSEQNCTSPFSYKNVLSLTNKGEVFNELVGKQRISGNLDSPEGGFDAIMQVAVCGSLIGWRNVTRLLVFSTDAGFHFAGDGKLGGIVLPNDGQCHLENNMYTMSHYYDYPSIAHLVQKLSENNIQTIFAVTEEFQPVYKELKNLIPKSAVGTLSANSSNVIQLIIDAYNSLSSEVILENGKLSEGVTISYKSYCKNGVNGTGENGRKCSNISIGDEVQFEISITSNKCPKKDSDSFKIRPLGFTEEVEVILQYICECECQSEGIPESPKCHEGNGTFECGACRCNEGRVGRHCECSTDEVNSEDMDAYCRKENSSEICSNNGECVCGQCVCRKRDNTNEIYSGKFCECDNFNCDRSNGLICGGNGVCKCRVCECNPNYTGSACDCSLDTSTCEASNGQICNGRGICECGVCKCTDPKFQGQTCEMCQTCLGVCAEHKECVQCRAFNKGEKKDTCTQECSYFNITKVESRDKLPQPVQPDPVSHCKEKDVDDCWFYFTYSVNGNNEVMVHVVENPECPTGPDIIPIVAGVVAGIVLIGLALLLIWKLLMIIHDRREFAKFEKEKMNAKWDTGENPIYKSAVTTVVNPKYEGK
Format: cell-based
Procedure: Binding inhibition is measured here as a concentration of compound that inhibits one-half the binding between a standard number of Jurkat cells and a standard amount of CS-1 compound bound to the surface of a microtiter plate well. Those concentrations are conveniently expressed as IC50 values, smaller numbers indicating a lower concentration required to inhibit 50 percent binding and therefore greater potency. Further specifics of this assay are provided hereinafter.
Jurkat cells (ATCC TIB 152), a human T lymphoblastic line, labeled with ^51 chromium were used to assay in vitro binding inhibition provided by various compounds discussed herein.
The plates were prepared as follows: The 25-mer CS-1 compound (SEQ ID NO:1) dissolved at 0.5-1 μg/ml in a buffer of 0.1M NaHCO3 at pH 9.5 that also contained 10 μg/ml of bovine serum albumin (BSA) or a conjugate of the CS-1 compound linked to ovalbumin (CS-1-OVA) dissolved at 1-2.5 μg/ml in the same buffer was used as the substrate. Each well of the microtiter plates was coated with 50 μl of substrate or buffer alone for controls. The wells were permitted to dry out completely and were then rinsed twice with PBS at pH 7.4. Non-specific binding sites of each well were then blocked using 200 μl per well of RPMI/1 percent BSA for two hours at room temperature.
Jurkat cells (3-5×10^6 cells) were placed into a 15 ml Falcon™ round-bottom tube with a cap. The tube was centrifuged, and the extra medium was then removed.
Two hundred microliters of a ^51 Cr labeling solution were added to the centrifuged cells and maintained in contact with the cells for 90-120 minutes in a warm room. […] Longer contact times provide a greater amount of labeling but lower cell viability.
The labeled cells are washed with (i) complete medium, (ii) 1 mM EDTA/PBS and then (iii) RPM1/1 percent BSA free of serum components. The cells are centrifuged after each washing. The cells are finally resuspended in serum-free RPMI/1 percent BSA at a concentration of 1×10^6 viable cells/ml, which provides a concentration that is diluted by one-half in the assay.
Inhibitor compounds are prepared as stock solutions at 20 mg/ml in DMSO in 1.5 ml cryogenic screwcap vials, and were stored at -70° C. Using Flow™ round-bottom or V-bottom microtiter plates, the inhibitor compounds were prepared at twice the assay concentration in RPMI/1 percent BSA at 60 μl/well.
Four initial dilutions were typically used.
The ^51 Cr-labeled cells ([…] at 60 μl/well) were then admixed with the diluted compound solutions. The admixtures were maintained at room temperature (about 22° C.) for 30 minutes.
One hundred microliters of each inhibitor compound/cell admixture were transferred to the substrate-coated wells. This was done in triplicate for each dilution. The resulting plates were incubated for 30 minutes at 37° C. and then washed gently three times with RPMI/1 percent BSA at 200 μl/well. Binding was observed microscopically, particularly after the second wash.
The bound cells were then lysed by the addition of a 0.5 percent solution of sodium dodecylsulfate in water at 100 μl/well. The resulting solutions were then processed for counting and calculation of IC50 values following usual procedures.
The data of Table 1 are normalized to the binding of SEQ ID NO:3. […] Multiple assays for the same compound were averaged.

Compound	binding inhibition, in words (compared with standard 10-mer of SEQ ID NO:3 or other compounds)
CCCCCCCCCCCCCCCCCCNC(=O)CCCCCNC(=O)[C@@H]1CCCN1C(=O)[C@H](Cc1ccccc1)NC(=O)[C@H](CC(=O)O)NC(=O)[C@H](CC(C)C)NC(=O)Cc1ccccc1 [1068.01, phenylacetyl-Leu-Asp-Phe-Pro-NH(CH2)5 C(O)NHC18 H37] (PhAc-LDFP[Ahx]-NHOctadecyl)	binding inhibition similar to that exhibited by the standard 10-mer compound of SEQ ID NO:3

Same assay, conditions: binding inhibition potency (IC50) normalized to standard compound of SEQ ID NO:3 = 1; multiple assays averaged; about one-tenth or less assigned zero

Compound	Relative Potency
NC(=O)[C@H]1CCCN1C(=O)[C@H](Cc1ccccc1)NC(=O)[C@H](CC(=O)O)NC(=O)[C@H](CC1CCCCC1)NC(=O)c1ccccc1 [896.31] (Bz-[Cha]DF[dP]-NH2)	11
CC(C)C[C@H](NC(=O)c1ccccc1)C(=O)N[C@@H](CC(=O)O)C(=O)N[C@H](C(=O)N1CCC[C@H]1C(N)=O)C(C)C [896.35]	16
CC(C)C[C@H](NC(=O)Cc1ccccc1)C(=O)N[C@@H](CS)C(=O)N[C@@H](Cc1ccccc1)C(=O)N1CCC[C@@H]1C(N)=O [896.59] (PhAc-LCF[dP]-NH2)	0
CC(C)C[C@H](NC(=O)Cc1ccccc1)C(=O)N[C@@H](CC(=O)O)C(=O)N[C@H](C(=O)N1CCC[C@@H]1C(N)=O)c1ccccc1 [896.69] (PhAc-LD[Phg][dP]-NH2)	61
CC(C)C[C@H](NC(=O)c1ccccc1)C(=O)N[C@@H](CC(=O)O)C(=O)N[C@H](C(=O)N1CCC[C@@H]1C(N)=O)C(C)C [926.02]	9.6
O=C(O)C[C@H](NC1CCN(C(=O)Cc2ccccc2)CC1)C(=O)N[C@@H](Cc1ccccc1)C(=O)N1CCCC1 [992.01]	0
CC(C)C[C@H](NC(=O)Cc1ccccc1)C(=O)N[C@@H](CC(=O)O)C(=O)N[C@@H](Cc1ccccc1)C(N)=O [997.12] (PhAc-Leu-Asp-Phe-NH2)	.48
CC(C)C[C@H](NC(=O)Cc1ccccc1)C(=O)N[C@@H](CC(=O)O)C(=O)NC1Cc2ccccc2N(CCN2CCOCC2)C1=O (stereo partly drawn) [997.18]	20
CC(C)C[C@H](NC(=O)Cc1ccccc1)C(=O)NC(CC(=O)O)(CC(=O)O)C(=O)N[C@@H](Cc1ccccc1)C(=O)N1CCCCC1 [1026.01]	0
CC(C)C[C@H](NC(=O)Cc1ccccc1)C(=O)NC(C(=O)O)C(=O)N[C@@H](Cc1ccccc1)C(=O)N1CCCCC1 (stereo partly drawn) [1026.02]	0
CC(C)C[C@H](NC(=O)Cc1ccccc1)C(=O)N[C@@H](CS(=O)(=O)O)C(=O)N[C@@H](Cc1ccccc1)C(=O)N1CCCCC1 [1026.06] (PhAc-Leu-[Cya]-Phe-Piperidide)	0
CC(C)C[C@H](NC(=O)Cc1ccccc1)C(=O)N[C@@H](CP(=O)(O)O)C(=O)N[C@@H](Cc1ccccc1)C(=O)N1CCCCC1 [1026.07]	0
CC(C)C[C@H](NC(=O)Cc1ccccc1)C(=O)N[C@@H](CS(N)(=O)=O)C(=O)N[C@@H](Cc1ccccc1)C(=O)N1CCCCC1 [1026.08]	0
CC(C)CN(CC(=O)Nc1ccccc1)C(=O)CN(CC(=O)O)C(=O)CN(Cc1ccccc1)C(=O)C1CCCC1 [1032.02]	.63
CC(C)C[C@@H](CN[C@@H](CC(=O)O)C(=O)N[C@@H](Cc1ccccc1)C(=O)N1CCCCC1)NC(=O)Cc1ccccc1 [1041.01]	0
CC(C)C[C@H](NC(=O)Cc1ccccc1)C(=O)N[C@@H](CC(=O)O)C(=O)N1C(=O)N(Cc2ccccc2)C(=O)[C@H]1Cc1ccccc1 [1047.07]	.38
CC(C)C[C@H](NC(=O)Cc1ccccc1)C(=O)N[C@@H](CC(=O)O)C(=O)N1C(=O)N(Cc2ccccc2)C(=O)[C@@H]1Cc1ccccc1 [1047.08]	.38
CC(C)C[C@H](NC(=O)Cc1ccccc1)C(=O)N[C@@H](CC(=O)O)C(=O)N[C@@H](Cc1ccccc1)C(=O)NCCCO [1051.05]	25
NC(=O)[C@H]1CCCN1C(=O)[C@H](Cc1ccccc1)NC(=O)[C@H](CC(=O)O)NC(=O)CCCCC1CCSS1 (stereo partly drawn) [1056.09]	1.1
O=C(O)CC(C(=O)N[C@@H](Cc1ccccc1)C(=O)N1CCCCC1)N1CC[C@H](NC(=O)Cc2ccccc2)C1=O (stereo partly drawn) [1057.01]	.88
CC(C)C[C@H](NC(=O)Cc1ccccc1)C(=O)N[C@@H](CC(=O)O)C(=O)NC1CCCCN(CC(N)=O)C1=O (stereo partly drawn) [1057.06]	97
CC(C)C[C@H](NC(=O)Cc1ccccc1)C(=O)N[C@@H](CC(=O)O)C(=O)N[C@@H](Cc1ccccc1)C(=O)N1CCSCC1 [1111.02]	450
CC(C)C[C@H](NC(=O)Cc1ccccc1)C(=O)N[C@@H](CC(=O)O)C(=O)N[C@@H](Cc1ccccc1)C(=O)N1CCN(CCOCCO)CC1 [1111.07]	510

Same assay, conditions: prodrug compounds, potency before enzymatic conversion to active form; relative to SEQ ID NO:3 = 1

Compound	Relative Potency
CC(C)C[C@H](NC(=O)Cc1ccccc1)C(=O)N[C@@H](CC(=O)OCC(=O)OCc1ccccc1)C(=O)N[C@@H](Cc1ccccc1)C(=O)N1CCC[C@@H]1C(N)=O [1067.01] (PhAc-LD(X7)F[dP]-NH2)	.97
CC(C)C[C@H](NC(=O)Cc1ccccc1)C(=O)N[C@@H](CC(=O)OCC(=O)O)C(=O)N[C@@H](Cc1ccccc1)C(=O)N1CCC[C@@H]1C(N)=O [1067.02] (PhAc-LD(X6)F[dP]-NH2)	.81
CCCCCCCCCCCCCCCCCCNC(=O)CCCCCNC(=O)[C@@H]1CCCN1C(=O)[C@H](Cc1ccccc1)NC(=O)[C@H](CC(=O)O)NC(=O)[C@H](CC(C)C)NC(=O)Cc1ccccc1 [1068.01, phenylacetyl-Leu-Asp-Phe-Pro-NH(CH2)5 C(O)NHC18 H37] (PhAc-LDFP[Ahx]-NHOctadecyl)	.91
CCCCCCCCCCNC(=O)[C@@H]1CCCN1C(=O)[C@H](Cc1ccccc1)NC(=O)[C@H](CC(=O)O)NC(=O)[C@H](CC(C)C)NC(=O)Cc1ccccc1 [1068.04] (PhAc-LDFP-NHDecyl)	2.13
CCCCCCCCCCCCCCCCCC(=O)OC1CCN(C(=O)[C@H](Cc2ccccc2)NC(=O)[C@H](CC(=O)O)NC(=O)[C@H](CC(C)C)NC(=O)Cc2ccccc2)CC1 [1068.05]	.63
CCCCCCCCCC(=O)OC1CCN(C(=O)[C@H](Cc2ccccc2)NC(=O)[C@H](CC(=O)O)NC(=O)[C@H](CC(C)C)NC(=O)Cc2ccccc2)CC1 [1068.06]	.63
CC(C)C[C@H](NC(=O)Cc1ccccc1)C(=O)N[C@@H](CC(=O)OCc1ccccc1)C(=O)N[C@@H](Cc1ccccc1)C(=O)N1CCC[C@@H]1C(N)=O [1068.07] (PhAc-LD(OBn)F[dP]-NH2)	0
CCCCCCCCCCOC(=O)C[C@H](NC(=O)[C@H](CC(C)C)NC(=O)Cc1ccccc1)C(=O)N[C@@H](Cc1ccccc1)C(=O)N1CCC[C@@H]1C(N)=O [1068.09] (PhAc-LD(ODecyl)F[dP]-NH2)	0
CCCCCCCCCCCCOC(=O)C[C@H](NC(=O)[C@H](CC(C)C)NC(=O)Cc1ccccc1)C(=O)N[C@@H](Cc1ccccc1)C(=O)N1CCC[C@@H]1C(N)=O [1068.10] (PhAc-LD(X5)F[dP]-NH2)	0
CCCCCCCCCCCCCCOC(=O)C[C@H](NC(=O)[C@H](CC(C)C)NC(=O)Cc1ccccc1)C(=O)N[C@@H](Cc1ccccc1)C(=O)N1CCC[C@@H]1C(N)=O [1068.11] (PhAc-LD(X1)F[dP]-NH2)	0
CCCCCCCCCCCCCCCCCCOC(=O)C[C@H](NC(=O)[C@H](CC(C)C)NC(=O)Cc1ccccc1)C(=O)N[C@@H](Cc1ccccc1)C(=O)N1CCC[C@@H]1C(N)=O [1068.12] (PhAc-LD(X8)F[dP]-NH2)	0
CCN(CC)C(=O)COC(=O)C[C@H](NC(=O)[C@H](CC(C)C)NC(=O)Cc1ccccc1)C(=O)N[C@@H](Cc1ccccc1)C(=O)N1CCC[C@@H]1C(N)=O [1068.13] (PhAc-LD(X4)F[dP]-NH2)	0
